Test results published in ChEMBL document CHEMBL2401728, “An unexpected Dimroth rearrangement leading to annelated thieno[3,2-d][1,2,3]triazolo[1,5-a]pyrimidines with potent antitumor activity” (Eur J Med Chem, 2013).

Columns and labels:
Assay type in all cases: functional
SK-MEL-28 [1] = experiment: Cytotoxicity against human SK-MEL-28 cells assessed as cellular growth at 0.01 uM after 48 hrs by SRB assay relative to control
M14 [2] = experiment: Cytotoxicity against human M14 cells assessed as cellular growth at 0.01 uM after 48 hrs by SRB assay relative to control
SNB-19 [3] = experiment: Cytotoxicity against human SNB19 cells assessed as cellular growth at 0.01 uM after 48 hrs by SRB assay relative to control
SW-620 = experiment: Cytotoxicity against human SW620 cells assessed as cellular growth at 0.01 uM after 48 hrs by SRB assay relative to control
A549 = experiment: Cytotoxicity against human A549 cells assessed as cellular growth at 0.01 uM after 48 hrs by SRB assay relative to control
MDA-MB-231 = experiment: Cytotoxicity against human MDA-MB-231 cells assessed as cellular growth at 100 uM after 48 hrs by SRB assay relative to control
SN12C = experiment: Cytotoxicity against human SN12C cells assessed as cellular growth at 100 uM after 48 hrs by SRB assay relative to control
U-251 = experiment: Cytotoxicity against human U251 cells assessed as cellular growth at 100 uM after 48 hrs by SRB assay relative to control
NCI-H23 = experiment: Cytotoxicity against human NCI-H23 cells assessed as cellular growth at 100 uM after 48 hrs by SRB assay relative to control
[4] = Cytotoxicity against human EKVX cells assessed as cellular growth at 100 uM after 48 hrs by SRB assay relative to control
A498 = experiment: Cytotoxicity against human A498 cells assessed as cellular growth at 10 uM after 48 hrs by SRB assay relative to control
MDA-MB-468 [5] = experiment: Cytotoxicity against human MDA-MB-468 cells assessed as cellular growth at 100 uM after 48 hrs by SRB assay relative to control
TK-10 = experiment: Cytotoxicity against human TK10 cells assessed as cellular growth at 1 uM after 48 hrs by SRB assay relative to control
SK-OV-3 = experiment: Cytotoxicity against human SKOV3 cells assessed as cellular growth at 1 uM after 48 hrs by SRB assay relative to control
OVCAR-8 = experiment: Cytotoxicity against human OVCAR8 cells assessed as cellular growth at 1 uM after 48 hrs by SRB assay relative to control
SF-539 = experiment: Cytotoxicity against human SF539 cells assessed as cellular growth at 1 uM after 48 hrs by SRB assay relative to control
SF-295 [6] = experiment: Cytotoxicity against human SF295 cells assessed as cellular growth at 1 uM after 48 hrs by SRB assay relative to control
COLO 205 [7] = experiment: Cytotoxicity against human COLO205 cells assessed as cellular growth at 1 uM after 48 hrs by SRB assay relative to control
NCI-H522 = experiment: Cytotoxicity against human NCI-H522 cells assessed as cellular growth at 1 uM after 48 hrs by SRB assay relative to control
OVCAR-3 = experiment: Cytotoxicity against human OVCAR3 cells after 48 hrs by SRB assay; conditions: OVCAR-3, 48 h
LOX IMVI = experiment: Cytotoxicity against human LOXIMVI cells after 48 hrs by SRB assay
SF-295 [8] = experiment: Cytotoxicity against human SF295 cells after 48 hrs by SRB assay; conditions: SF-295, 48 h
COLO 205 [9] = experiment: Cytotoxicity against human COLO205 cells after 48 hrs by SRB assay; conditions: COLO 205, 48 h
NCI-H226 = experiment: Cytotoxicity against human NCI-H226 cells after 48 hrs by SRB assay; conditions: NCI-H226, 48 h
RXF 393 [10] = experiment: Cytotoxicity against human RXF393 cells assessed as cellular growth at 0.1 uM after 48 hrs by SRB assay relative to control
786-0 = experiment: Cytotoxicity against human 786-0 cells assessed as cellular growth at 0.1 uM after 48 hrs by SRB assay relative to control
[11] = Cytotoxicity against human NCI-ADR-RES cells assessed as cellular growth at 0.1 uM after 48 hrs by SRB assay relative to control
IGROV-1 = experiment: Cytotoxicity against human IGROV1 cells assessed as cellular growth at 0.1 uM after 48 hrs by SRB assay relative to control
SK-MEL-5 = experiment: Cytotoxicity against human SK-MEL-5 cells assessed as cellular growth at 0.1 uM after 48 hrs by SRB assay relative to control
SK-MEL-28 [12] = experiment: Cytotoxicity against human SK-MEL-28 cells assessed as cellular growth at 0.1 uM after 48 hrs by SRB assay relative to control
MDA-MB-435 = experiment: Cytotoxicity against human MDA-MB-435 cells assessed as cellular growth at 0.1 uM after 48 hrs by SRB assay relative to control
M14 [13] = experiment: Cytotoxicity against human M14 cells assessed as cellular growth at 0.1 uM after 48 hrs by SRB assay relative to control
SNB-19 [14] = experiment: Cytotoxicity against human SNB19 cells assessed as cellular growth at 0.1 uM after 48 hrs by SRB assay relative to control
HOP-92 = experiment: Cytotoxicity against human HOP92 cells assessed as cellular growth at 0.1 uM after 48 hrs by SRB assay relative to control
K562 = experiment: Cytotoxicity against human K562 cells assessed as cellular growth at 0.1 uM after 48 hrs by SRB assay relative to control
MDA-MB-468 [15] = experiment: Cytotoxicity against human MDA-MB-468 cells assessed as cellular growth at 0.01 uM after 48 hrs by SRB assay relative to control
T47D = experiment: Cytotoxicity against human T47D cells assessed as cellular growth at 0.01 uM after 48 hrs by SRB assay relative to control
RXF 393 [16] = experiment: Cytotoxicity against human RXF393 cells assessed as cellular growth at 0.01 uM after 48 hrs by SRB assay relative to control
[17] = read-out: LC50 (the source's name)
[18] = read-out: pLC50 (the source's name) (converted)

CN1CCN(CCCn2c3c(sc4ncccc43)c(=O)n3nnc(-c4ccccc4)c23)CC1
Activity (SK-MEL-28 [1]): 100% | Activity (M14 [2]): 97% | Activity (SNB-19 [3]): 101% | Activity (SW-620): 96% | Activity (A549): 97% | Activity (MDA-MB-231): -42% | Activity (SN12C): -47% | Activity (U-251): -46% | Activity (NCI-H23): -59% | Activity [4]: -80% | Activity (A498): 57% | Activity (MDA-MB-468 [5]): -91% | Activity (TK-10): 119% | Activity (SK-OV-3): 106% | Activity (OVCAR-8): 89% | Activity (SF-539): 90% | Activity (SF-295 [6]): 103% | Activity (COLO 205 [7]): 86% | Activity (NCI-H522): 99% | GI50 (OVCAR-3; read-out: GI50): 1.81 µM | CC50 (OVCAR-3; [17]): 6.68 µM | TGI (OVCAR-3; read-out: TGI): 3.48 µM | GI50 (OVCAR-3; read-out: pGI50 (converted)): 1.82 µM | CC50 (OVCAR-3; [18]): 6.61 µM | TGI (OVCAR-3; read-out: pTGI (converted)): 3.47 µM | GI50 (LOX IMVI; read-out: GI50): 1.66 µM | TGI (LOX IMVI; read-out: TGI): 3.36 µM | GI50 (LOX IMVI; read-out: pGI50 (converted)): 1.66 µM | TGI (LOX IMVI; read-out: pTGI (converted)): 3.39 µM | GI50 (SF-295 [8]; read-out: GI50): 1.96 µM | CC50 (SF-295 [8]; [17]): 6.96 µM | TGI (SF-295 [8]; read-out: TGI): 3.7 µM | GI50 (SF-295 [8]; read-out: pGI50 (converted)): 1.95 µM | CC50 (SF-295 [8]; [18]): 6.92 µM | TGI (SF-295 [8]; read-out: pTGI (converted)): 3.72 µM | GI50 (COLO 205 [9]; read-out: GI50): 1.63 µM | CC50 (COLO 205 [9]; [17]): 6.42 µM | TGI (COLO 205 [9]; read-out: TGI): 3.24 µM | GI50 (COLO 205 [9]; read-out: pGI50 (converted)): 1.62 µM | CC50 (COLO 205 [9]; [18]): 6.46 µM | TGI (COLO 205 [9]; read-out: pTGI (converted)): 3.24 µM | GI50 (NCI-H226; read-out: GI50): 13.9 µM | CC50 (NCI-H226; [17]): 64.2 µM | TGI (NCI-H226; read-out: TGI): 29.8 µM | GI50 (NCI-H226; read-out: pGI50 (converted)): 13.8 µM | CC50 (NCI-H226; [18]): 64.6 µM | TGI (NCI-H226; read-out: pTGI (converted)): 29.5 µM | Activity (RXF 393 [10]): 93% | Activity (786-0): 100% | Activity [11]: 91% | Activity (IGROV-1): 96% | Activity (SK-MEL-5): 92% | Activity (SK-MEL-28 [12]): 95% | Activity (MDA-MB-435): 99% | Activity (M14 [13]): 94% | Activity (SNB-19 [14]): 96% | Activity (HOP-92): 92% | Activity (K562): 98% | Activity (MDA-MB-468 [15]): 94% | Activity (T47D): 89% | Activity (RXF 393 [16]): 100%

O=C(CCCn1c2c(sc3ccccc32)c(=O)n2nnc(-c3ccccc3)c12)NCCc1c[nH]cn1
Activity (SK-MEL-28 [1]): 117% | Activity (M14 [2]): 108% | Activity (SNB-19 [3]): 94% | Activity (SW-620): 63% | Activity (A549): 103% | Activity (MDA-MB-231): -100% | Activity (SN12C): -100% | Activity (U-251): -100% | Activity (NCI-H23): -38% | Activity [4]: -24% | Activity (A498): -85% | Activity (MDA-MB-468 [5]): -100% | Activity (TK-10): 121% | Activity (SK-OV-3): 84% | Activity (OVCAR-8): 32% | Activity (SF-539): -6% | Activity (SF-295 [6]): 39% | Activity (COLO 205 [7]): 41% | Activity (NCI-H522): 42% | GI50 (OVCAR-3; read-out: GI50): 1.66 µM | CC50 (OVCAR-3; [17]): 5.66 µM | TGI (OVCAR-3; read-out: TGI): 3.07 µM | GI50 (OVCAR-3; read-out: pGI50 (converted)): 1.66 µM | CC50 (OVCAR-3; [18]): 5.62 µM | TGI (OVCAR-3; read-out: pTGI (converted)): 3.09 µM | GI50 (LOX IMVI; read-out: GI50): 1.51 µM | CC50 (LOX IMVI; [17]): 5.49 µM | TGI (LOX IMVI; read-out: TGI): 2.88 µM | GI50 (LOX IMVI; read-out: pGI50 (converted)): 1.51 µM | CC50 (LOX IMVI; [18]): 5.5 µM | TGI (LOX IMVI; read-out: pTGI (converted)): 2.88 µM | GI50 (SF-295 [8]; read-out: GI50): 0.456 µM | CC50 (SF-295 [8]; [17]): 5.41 µM | TGI (SF-295 [8]; read-out: TGI): 2.11 µM | GI50 (SF-295 [8]; read-out: pGI50 (converted)): 0.457 µM | CC50 (SF-295 [8]; [18]): 5.37 µM | TGI (SF-295 [8]; read-out: pTGI (converted)): 2.09 µM | GI50 (COLO 205 [9]; read-out: GI50): 0.332 µM | CC50 (COLO 205 [9]; [17]): 5.9 µM | TGI (COLO 205 [9]; read-out: TGI): 2.23 µM | GI50 (COLO 205 [9]; read-out: pGI50 (converted)): 0.331 µM | CC50 (COLO 205 [9]; [18]): 5.89 µM | TGI (COLO 205 [9]; read-out: pTGI (converted)): 2.24 µM | GI50 (NCI-H226; read-out: GI50): 2.75 µM | CC50 (NCI-H226; [17]): 41.2 µM | TGI (NCI-H226; read-out: TGI): 7.49 µM | GI50 (NCI-H226; read-out: pGI50 (converted)): 2.75 µM | CC50 (NCI-H226; [18]): 40.7 µM | TGI (NCI-H226; read-out: pTGI (converted)): 7.41 µM | Activity (RXF 393 [10]): 125% | Activity (786-0): 62% | Activity [11]: 97% | Activity (IGROV-1): 50% | Activity (SK-MEL-5): 90% | Activity (SK-MEL-28 [12]): 121% | Activity (MDA-MB-435): 69% | Activity (M14 [13]): 68% | Activity (SNB-19 [14]): 65% | Activity (HOP-92): 95% | Activity (K562): 23% | Activity (MDA-MB-468 [15]): 102% | Activity (T47D): 85% | Activity (RXF 393 [16]): 118%
